According to the supplement of paper PMC10307832:

How the values were obtained:
Assay in all cases: relative viability (nuclei count vs DMSO), 5 days (fraction); higher = more cells survive
[1] = compound: C[C@]1(O)C[C@@H](c2nc(-c3ccc4ccc(-c5ccccc5)nc4c3)c3c(N)nccn32)C1 [Linsitinib] + C[C@@H](Oc1cc(-c2cnn(C3CCNCC3)c2)cnc1N)c1c(Cl)ccc(F)c1Cl [Crizotinib] (partner 1 µM)
Outline: (§1)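 The day after seeding in 1536-well plates, lung cancer cell lines were treated by pin tool with a single drug, or with a fixed anchor-drug dose together with five library-drug doses (not always all listed) in √10 steps. After 5 days, a combined fix-and-stain solution (final 0.05% Triton X-100, 1% formaldehyde, 1 ug/ml Hoechst) was added. Nuclei counted on 4× images gave relative viability as treated counts over vehicle counts, reported as the median of duplicate plates.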

[2] = compound: C[C@]1(O)C[C@@H](c2nc(-c3ccc4ccc(-c5ccccc5)nc4c3)c3c(N)nccn32)C1 [Linsitinib] + O=C(c1cc(Cc2n[nH]c(=O)c3ccccc23)ccc1F)N1CCN(C(=O)C2CC2)CC1 [Olaparib] (partner 8 µM)
Outline: as §1

[3] = compound: Cc1ccc(C(=O)N(CCCN)[C@@H](c2nc3cc(Cl)ccc3c(=O)n2Cc2ccccc2)C(C)C)cc1 [Ispinesib] + CC(C)C[C@H](NC(=O)[C@H](Cc1ccccc1)NC(=O)c1cnccn1)B(O)O [Bortezomib] (partner 0.002 µM)
Outline: as §1

[4] = compound: Cc1ccc(C(=O)N(CCCN)[C@@H](c2nc3cc(Cl)ccc3c(=O)n2Cc2ccccc2)C(C)C)cc1 [Ispinesib] + Nc1ncn([C@H]2C[C@H](O)[C@@H](CO)O2)c(=O)n1 [Decitabine] (partner 2 µM)
Outline: as §1

Cell Line | relative viability ([1]; first compound 0.01 µM) | relative viability ([1]; first compound 0.03162 µM) | relative viability ([1]; first compound 0.1 µM) | relative viability ([1]; first compound 0.3162 µM) | relative viability ([1]; first compound 1 µM) | relative viability ([2]; first compound 0.01 µM) | relative viability ([2]; first compound 0.03162 µM) | relative viability ([2]; first compound 0.1 µM) | relative viability ([2]; first compound 0.3162 µM) | relative viability ([2]; first compound 1 µM) | relative viability ([3]; first compound 0.001 µM) | relative viability ([3]; first compound 0.003162 µM) | relative viability ([3]; first compound 0.01 µM) | relative viability ([3]; first compound 0.03162 µM) | relative viability ([3]; first compound 0.1 µM) | relative viability ([4]; first compound 0.001 µM) | relative viability ([4]; first compound 0.003162 µM) | relative viability ([4]; first compound 0.01 µM) | relative viability ([4]; first compound 0.03162 µM) | relative viability ([4]; first compound 0.1 µM)
LOU-NH91 | 0.756 | 0.763 | 0.743 | 0.735 | 0.644 | 0.911 | 0.841 | 0.941 | 0.857 | 0.903 | 0.507 | 0.507 | 0.575 | 0.444 | 0.395 | 0.795 | 0.852 | 0.858 | 0.786 | 0.342
LU99A | 0.591 | 0.716 | 0.605 | 0.432 | 0.462 | 0.3 | 0.195 | 0.266 | – | 0.255 | 1.06 | 1.12 | 1.33 | 0.223 | 0.183 | 0.868 | 1.1 | 1.02 | 0.674 | 0.727
LXF-289 | 0.789 | 0.885 | 0.807 | 0.671 | 0.792 | 1.11 | 1.13 | 1.17 | 0.797 | 1.05 | 0.993 | 0.992 | 1.14 | 0.799 | 0.118 | 0.359 | 0.388 | 0.387 | 0.404 | 0.349
NCI-H23 | 0.416 | 0.445 | 0.591 | 0.351 | 0.451 | 0.33 | 0.317 | 0.29 | 0.218 | 0.182 | 0.977 | 1.09 | 1.6 | 0.331 | 0.241 | 0.27 | 0.326 | 0.304 | 0.309 | 0.213
NCI-H322M | 0.912 | 0.879 | 0.961 | 0.753 | 0.855 | 0.746 | 0.875 | 0.87 | 0.772 | 0.798 | 1.38 | 1.33 | 1.41 | 0.722 | 0.757 | 0.744 | 0.771 | 0.697 | 0.666 | 0.559
NCI-H441 | 0.872 | 0.902 | 0.76 | 0.552 | 0.579 | 0.515 | 0.667 | 0.487 | 0.399 | 0.435 | 0.48 | 0.668 | 0.4 | 0.41 | 0.228 | 0.216 | 0.139 | 0.192 | 0.18 | 0.193
NCI-H460 | 0.799 | 0.837 | 0.961 | 0.745 | 0.714 | 0.423 | 0.273 | 0.421 | – | 0.332 | 1.53 | 1.48 | – | 0.793 | 0.0396 | 0.533 | 0.516 | 0.699 | 0.146 | 0.0478
NCI-H520 | 0.844 | 0.615 | 0.953 | – | 0.817 | 0.349 | 0.395 | 0.344 | – | 0.346 | 0.568 | 0.706 | 0.541 | 0.218 | 0.242 | 0.54 | 0.469 | 0.33 | 0.226 | 0.227
